The text below walks through data of US7166609B2, “Pyrimidine-4,6-dicarboxylic acid diamides for selectively inhibiting collagenases” (Sanofi-Aventis Deutschland GmbH, priority 2002, dated 2007).

The assay deals with T1, catalytic domain of human collagenase 3 (MMP-13) (Homo sapiens, UniProt P45452).
T1 construct: Determining the enzyme activity of the catalytic domain of human collagenase 3 (MMP-13); purchased INVITEK, Berlin 30 100 803
Kind of assay: Enzyme activity of the catalytic domain of human collagenase 3 (MMP-13), fluorogenic substrate. Format: biochemical. Particulars: catalytic domain, activated proenzyme, pH 7.5; read-out: IC50 MMP13. The method, then:
Determining the enzyme activity of the catalytic domain of human collagenase 3 (MMP-13).
Activating the proenzyme:
2 parts by volume of proenzyme are incubated with 1 part by volume of APMA solution at 37° C. for 1.5 hours. The APMA solution is prepared from a 10 mmol/L solution of p-aminophenylmercuric acetate in 0.1 mmol/L NaOH by diluting with 3 parts by volume of tris/HCl buffer, pH 7.5 (see below). The pH is adjusted to between 7.0 and 7.5 by adding 1 mmol/L HCl. After the enzyme has been activated, it is diluted to a concentration of 1.67 μg/ml using the tris/HCl buffer.
In order to measure the enzyme activity, 10 μL of enzyme solution are incubated for 15 minutes with 10 μL of a 3% (v/v) buffered solution of dimethyl sulfoxide (reaction 1). In order to measure the enzyme inhibitor activity, 10 μL of enzyme solution are incubated with 10 μL of a 3% (v/v) buffered solution of dimethyl sulfoxide containing the enzyme inhibitor (reaction 2).
In the case of both reaction 1 and reaction 2, the enzyme reaction is monitored by fluorescence spectroscopy (328 nm (extinction)/393 nm (emission)) after adding 10 μL of a 3% (v/v) aqueous solution of dimethyl sulfoxide containing 0.75 mmol of the substrate/L.
The enzyme activity is depicted as increase in extinction/minute.
The effect of the inhibitor is calculated as a percentage inhibition using the following formula: % inhibition=100−[(increase in extinction/minute in reaction 2)/(increase in extinction/minute in reaction 1)×100].
The IC50, i.e. the inhibitor concentration which is required for inhibiting the enzyme activity by 50%, is determined graphically by plotting the percentage inhibitions at different inhibitor concentrations.
The buffer solution contains 0.05% Brij (Sigma, Deisenhofen, Germany) and 0.1 mol of tris/HCl/L, 0.1 mol of NaCl/L and 0.01 mol of CaCl2/L (pH=7.5). The enzyme solution contains 1.67 μg of the enzyme domain/mL.
The substrate solution contains 0.75 mmol/L of the fluorogenic substrate (7-methoxycoumarin-4-yl)acetyl-Pro-Leu-Gly-Leu-3-(2′,4′-dinitrophenyl)-L-2,3-diaminopropionyl-Ala-Arg-NH2 (Bachem, Heidelberg, Germany).
Take `COc1cccc(CNC(=O)c2cc(C(=O)NCc3ccc(NC(=O)Nc4cc(Cl)nc(Cl)c4)cc3)ncn2)c1` [Example 137]: the half-maximal inhibitory concentration (IC50) – broadly, the concentration at which inhibition is half-maximal – worked out at 0.04 µM. Then `COc1cccc(CNC(=O)c2cc(C(=O)NCc3ccc(NC(=O)NC(C)(C)C)cc3)ncn2)c1` [Example 138], with 0.05 µM; and `CC#CCOC(=O)Nc1ccc(CNC(=O)c2cc(C(=O)NCc3cccc(OC)c3)ncn2)cc1` [Example 139], with 0.01 µM; and `C#CCOC(=O)Nc1ccc(CNC(=O)c2cc(C(=O)NCc3cccc(OC)c3)ncn2)cc1` [Example 144], with 0.009 µM. The result for `COc1cccc(CNC(=O)c2cc(C(=O)NCc3ccc(NC(=O)NC(=O)c4ccccc4)cc3)ncn2)c1` [Example 147] reads 0.003 µM.

For the molecule `COc1cccc(CNC(=O)c2cc(C(=O)NCc3cccc(NC(=O)OC(C)C)c3)ncn2)c1` [Example 150], the 50% inhibitory concentration (IC50) amounted to 0.08 µM.

For the molecule `COc1cccc(CNC(=O)c2cc(C(=O)NCc3ccc(C(=O)N4CCOCC4)cc3)ncn2)c1` [Example 151], the IC50 was determined as 0.009 µM. The result for `CCN(CC)C(=O)c1ccc(CNC(=O)c2cc(C(=O)NCc3ccc(F)c(Cl)c3)ncn2)cc1` [Example 153] reads 0.015 µM; that for `O=C(NCc1ccc(C(=O)N2CCOCC2)cc1)c1cc(C(=O)NCc2ccc(F)c(Cl)c2)ncn1` [Example 154], 0.022 µM.
